According to patent US20230173764A1, “SURGICAL SYSTEM AND METHODS OF USE” (priority 2021, published 2023):

What was measured:
myofibroblast formation = conditions: Ajmal et al. (2003); cited from earlier work
[1] = given preoperatively; cited from earlier work
fibrinolysis = experiment: concentrations effective against fibrinolysis; conditions: one tenth of the doses used in the non-GLP acute porcine study
Source text: However, in some embodiments, however, higher doses of tranexamic acid are used for topical applications to account for tranexamic acid being widely distributed throughout the extracellular and intracellular compartments when given preoperatively.

Structure (SMILES) | myofibroblast formation (myofibroblast formation) | time to reach plasma concentrations [1] [min] | effective in reversing fibrinolysis (fibrinolysis)
O=S(=O)([O-])CCS.[Na+] [MESNA, sodium 2-mercaptoethane sulfonate] | diminish myofibroblast formation | – | –
NC[C@H]1CC[C@H](C(=O)O)CC1 [tranexamic acid] | – | 5 to 15 | effective
